Reference: the NIST ThermoML archive (doi:10.1021/je100801s)

Experiments:
[1] = for Normal melting temperature: DTA
[2] = Molar enthalpy of transition or fusion; details: Crystal; DSC

NC(=O)c1cccc(F)c1 [3-fluorobenzamide]
[1]
Details	vapor or sublimation pressure [kPa]
323.1 K, Crystal, Calculated from knudsen effusion weight loss	9e-05
325.17 K, Crystal, Calculated from knudsen effusion weight loss	0.000114
327.18 K, Crystal, Calculated from knudsen effusion weight loss	0.000143
329.08 K, Crystal, Calculated from knudsen effusion weight loss	0.000183
331.13 K, Crystal, Calculated from knudsen effusion weight loss	0.000229
333.18 K, Crystal, Calculated from knudsen effusion weight loss	0.000286
336.83 K, Crystal, Closed cell (Static) method	0.00046
337.28 K, Crystal, Calculated from knudsen effusion weight loss	0.000461
339.17 K, Crystal, Calculated from knudsen effusion weight loss	0.000559
339.76 K, Crystal, Closed cell (Static) method	0.00063
341.08 K, Crystal, Calculated from knudsen effusion weight loss	0.000688
342.87 K, Crystal, Closed cell (Static) method	0.00089
343.13 K, Crystal, Calculated from knudsen effusion weight loss	0.000842
345.18 K, Crystal, Calculated from knudsen effusion weight loss	0.001032
345.87 K, Crystal, Closed cell (Static) method	0.0012
348.82 K, Crystal, Closed cell (Static) method	0.00166
351.66 K, Crystal, Closed cell (Static) method	0.00222
354.65 K, Crystal, Closed cell (Static) method	0.003
357.76 K, Crystal, Closed cell (Static) method	0.00407
360.59 K, Crystal, Closed cell (Static) method	0.00535
363.62 K, Crystal, Closed cell (Static) method	0.0071
366.55 K, Crystal, Closed cell (Static) method	0.00941
372.5 K, Crystal, Closed cell (Static) method	0.01592
375.47 K, Crystal, Closed cell (Static) method	0.02067
378.58 K, Crystal, Closed cell (Static) method	0.02712
382.58 K, Liquid, Closed cell (Static) method	0.0587
384.49 K, Crystal, Closed cell (Static) method	0.04471
387.47 K, Crystal, Closed cell (Static) method	0.05659
387.53 K, Liquid, Closed cell (Static) method	0.07955
390.45 K, Crystal, Closed cell (Static) method	0.07258
392.49 K, Liquid, Closed cell (Static) method	0.108
396.38 K, Crystal, Closed cell (Static) method	0.1148
397.43 K, Liquid, Closed cell (Static) method	0.1444
402.37 K, Liquid, Closed cell (Static) method	0.1895
407.27 K, Liquid, Closed cell (Static) method	0.2514
412.23 K, Liquid, Closed cell (Static) method	0.3264
417.16 K, Liquid, Closed cell (Static) method	0.4262
422.04 K, Liquid, Closed cell (Static) method	0.5472
427.02 K, Liquid, Closed cell (Static) method	0.7039
432 K, Liquid, Closed cell (Static) method	0.9006

Details	Normal melting temperature [°C]
[1], Crystal	128.43

Details	Molar enthalpy of transition or fusion [kcal/mol]
[2]	5.14

NC(=O)c1ccccc1F [o-fluorobenzamide]
[1]
Details	vapor or sublimation pressure [kPa]
303.12 K, Crystal, Calculated from knudsen effusion weight loss	0.000102
305.21 K, Crystal, Calculated from knudsen effusion weight loss	0.00013
307.19 K, Crystal, Calculated from knudsen effusion weight loss	0.000166
309.12 K, Crystal, Calculated from knudsen effusion weight loss	0.000213
311.2 K, Crystal, Calculated from knudsen effusion weight loss	0.00027
313.29 K, Crystal, Calculated from knudsen effusion weight loss	0.000341
315.11 K, Crystal, Calculated from knudsen effusion weight loss	0.000429
317.2 K, Crystal, Calculated from knudsen effusion weight loss	0.00054
317.98 K, Crystal, Closed cell (Static) method	0.0006
319.18 K, Crystal, Calculated from knudsen effusion weight loss	0.000668
320.48 K, Crystal, Closed cell (Static) method	0.0008
321.11 K, Crystal, Calculated from knudsen effusion weight loss	0.000843
322.94 K, Crystal, Closed cell (Static) method	0.00105
323.18 K, Crystal, Calculated from knudsen effusion weight loss	0.001059
325.18 K, Crystal, Calculated from knudsen effusion weight loss	0.001295
325.41 K, Crystal, Closed cell (Static) method	0.00137
327.86 K, Crystal, Closed cell (Static) method	0.00175
330.38 K, Crystal, Closed cell (Static) method	0.00233
332.86 K, Crystal, Closed cell (Static) method	0.003
335.32 K, Crystal, Closed cell (Static) method	0.0038
337.75 K, Crystal, Closed cell (Static) method	0.00484
340.21 K, Crystal, Closed cell (Static) method	0.00617
342.7 K, Crystal, Closed cell (Static) method	0.00785
345.32 K, Crystal, Closed cell (Static) method	0.01002
350.2 K, Crystal, Closed cell (Static) method	0.01581
355.69 K, Crystal, Closed cell (Static) method	0.02544
357.75 K, Crystal, Closed cell (Static) method	0.03116
358.65 K, Liquid, Closed cell (Static) method	0.05979
360.13 K, Crystal, Closed cell (Static) method	0.03777
361.55 K, Liquid, Closed cell (Static) method	0.07225
362.71 K, Crystal, Closed cell (Static) method	0.04753
364.59 K, Liquid, Closed cell (Static) method	0.08814
365.1 K, Crystal, Closed cell (Static) method	0.05735
367.55 K, Liquid, Closed cell (Static) method	0.1048
370.04 K, Crystal, Closed cell (Static) method	0.08597
370.55 K, Liquid, Closed cell (Static) method	0.126
372.63 K, Crystal, Closed cell (Static) method	0.1058
375.47 K, Liquid, Closed cell (Static) method	0.1688
377.6 K, Crystal, Closed cell (Static) method	0.1572
380.43 K, Liquid, Closed cell (Static) method	0.225
385.38 K, Liquid, Closed cell (Static) method	0.2972
391.35 K, Liquid, Closed cell (Static) method	0.4081
394.82 K, Liquid, Closed cell (Static) method	0.4892
397.41 K, Liquid, Closed cell (Static) method	0.5572
399.81 K, Liquid, Closed cell (Static) method	0.6302
402.34 K, Liquid, Closed cell (Static) method	0.7124
404.79 K, Liquid, Closed cell (Static) method	0.8064
407.26 K, Liquid, Closed cell (Static) method	0.9115
409.66 K, Liquid, Closed cell (Static) method	1.024
412.16 K, Liquid, Closed cell (Static) method	1.147

Details	Normal melting temperature [°C]
[1], Crystal	115.34

Details	Molar enthalpy of transition or fusion [kcal/mol]
[2]	4.95

NC(=O)c1ccc(F)cc1 [4-fluorobenzamide]
[1], Closed cell (Static) method
Details	vapor or sublimation pressure [kPa]
344.79 K, Crystal	0.0007
347.76 K, Crystal	0.00097
350.74 K, Crystal	0.0013
353.73 K, Crystal	0.00174
356.7 K, Crystal	0.00236
359.68 K, Crystal	0.00313
362.66 K, Crystal	0.0041
365.63 K, Crystal	0.00535
368.61 K, Crystal	0.00699
371.58 K, Crystal	0.009
374.54 K, Crystal	0.01167
377.53 K, Crystal	0.015
380.48 K, Crystal	0.01934
383.47 K, Crystal	0.02445
386.43 K, Crystal	0.03134
392.35 K, Crystal	0.04995
395.33 K, Crystal	0.06299
398.28 K, Crystal	0.07872
401.25 K, Crystal	0.09854
404.24 K, Crystal	0.1266
407.22 K, Crystal	0.1568
410.16 K, Crystal	0.1944
410.2 K, Liquid	0.2629
412.16 K, Liquid	0.2902
413.14 K, Crystal	0.2396
414.13 K, Liquid	0.3222
416.1 K, Crystal	0.2948
416.11 K, Liquid	0.3584
418.11 K, Liquid	0.3963
419.06 K, Crystal	0.3637
420.05 K, Liquid	0.4398
422.01 K, Crystal	0.4419
422.03 K, Liquid	0.4862
424.02 K, Liquid	0.5382
424.99 K, Crystal	0.538
426 K, Liquid	0.593
427.93 K, Liquid	0.6524
429.92 K, Liquid	0.719
431.89 K, Liquid	0.7879
433.87 K, Liquid	0.8708
435.84 K, Liquid	0.9508
437.82 K, Liquid	1.04

Details	Normal melting temperature [°C]
[1], Crystal	156.04

Details	Molar enthalpy of transition or fusion [kcal/mol]
[2]	4.66
